This note sets out measurements from patent US8696867B2, “Disulfo-type fluorescent whitening agents” (Blankophor GmbH & Co. KG, priority 2009, dated 2014).

Data set [1] is described as follows: Solubility of fluorescent whitening agent in distilled water (saturated solution). The data set is classed as physicochemical. Particulars: ambient temperature (about 22° C.), grams FWA dissolved in 100 g saturated FWA solution. The method, then: The solubility of the fluorescent whitening agents was determined as follows: a dry powder of fluorescent whitening agent was added to 50 ml of distilled water until the saturation point was reached. The thus obtained saturated solution was filtered, dried and the dried residue was weighted.
The indicated percentages are based on the amount of grams of fluorescent whitening agent dissolved in 100 g of the corresponding saturated FWA solution.

Data set [2] in a line: Storage stability of approximately 20% aqueous solution. Particulars: approximately 20% solution, ambient temperature and 4° C., without stirring. It counts as physicochemical. The method, then: The stability behavior was studied by storing an approximately 20% solution of FWA 1 and FWA 2, respectively, at ambient temperature and at 4° C., each without stirring. The aqueous brightener preparations have a shelf-life of more than 30 days both at ambient and low temperature.

The structures appear in SMILES notation.

In data set [1], `CC(O)CN(CC(C)O)c1nc(Nc2ccc(C(=O)[O-])cc2)nc(Nc2ccc(/C=C/c3ccc(Nc4nc(Nc5ccc(C(=O)[O-])cc5)nc(N(CC(C)O)CC(C)O)n4)cc3S(=O)(=O)[O-])c(S(=O)(=O)[O-])c2)n1.[Na+].[Na+].[Na+].[Na+]` (stereo not shown) [FWA 2] returned a solubility of 24.2%. For the same compound, the “crystalline precipitates on storage” value in data set [2] was “no crystalline precipitates”.
In the same order, the values of `O=C([O-])c1ccc(Nc2nc(Nc3ccc(/C=C/c4ccc(Nc5nc(Nc6ccc(C(=O)[O-])cc6)nc(N(CCO)CCO)n5)cc4S(=O)(=O)[O-])c(S(=O)(=O)[O-])c3)nc(N(CCO)CCO)n2)cc1.[Na+].[Na+].[Na+].[Na+]` [FWA 1] are 27.8% and “no crystalline precipitates”.
